Data as given in PubChem BioAssay AID248 (DTP/NCI, 2004).
Toxic doses and inconclusive results are not listed. Rule as the data show it: active = T/C of 150% or more; inactive = T/C below 125%.

System: L1210 leukemia ip in BDF1 mice, survival T/C
Test: NCI In Vivo Anticancer Drug Screen. Data for tumor model L1210 Leukemia (intraperitoneal) in B6D2F1 (BDF1) mice
Details: endpoint: mean survival time, higher = longer survival
Method in brief: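 Value reflects the ratio of survival in compound-treated mice to survival in vehicle-treated controls, with both groups carrying the same transplanted tumor.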

[1] = dose: 100.0 mg/kg/injection, schedule: Q01DX001 (ip), vehicle: saline
[2] = dose: 200.0 mg/kg/injection, schedule: Q01DX001 (ip), vehicle: saline
[3] = dose: 100.0 mg/kg/injection, schedule: Q01DX009 (ip), vehicle: Klucel (hydroxypropylcellulose) (HPC)
[4] = dose: 100.0 mg/kg/injection, schedule: Q04DX003 (ip), vehicle: other
[5] = dose: 200.0 mg/kg/injection, schedule: Q04DX003 (ip), vehicle: other
[6] = dose: 400.0 mg/kg/injection, schedule: Q04DX003 (ip), vehicle: other
[7] = dose: 50.0 mg/kg/injection, schedule: Q01DX001 (ip), vehicle: saline
[8] = dose: 400.0 mg/kg/injection, schedule: Q01DX001 (ip), vehicle: saline
[9] = dose: 100.0 mg/kg/injection, schedule: Q01DX001 (ip), vehicle: other
[10] = dose: 100.0 mg/kg/injection, schedule: Q01DX009 (ip), vehicle: saline with Tween-80
[11] = dose: 200.0 mg/kg/injection, schedule: Q01DX001 (ip), vehicle: other
[12] = dose: 200.0 mg/kg/injection, schedule: Q01DX009 (ip), vehicle: saline with Tween-80
[13] = dose: 400.0 mg/kg/injection, schedule: Q01DX001 (ip), vehicle: other
[14] = dose: 400.0 mg/kg/injection, schedule: Q01DX009 (ip), vehicle: saline with Tween-80
[15] = dose: 200.0 mg/kg/injection, schedule: Q01DX009 (ip), vehicle: Klucel (hydroxypropylcellulose) (HPC)
[16] = dose: 400.0 mg/kg/injection, schedule: Q01DX009 (ip), vehicle: Klucel (hydroxypropylcellulose) (HPC)
[17] = dose: 100.0 mg/kg/injection, schedule: Q04DX003 (ip), vehicle: saline
[18] = dose: 200.0 mg/kg/injection, schedule: Q04DX003 (ip), vehicle: saline
[19] = dose: 100.0 mg/kg/injection, schedule: Q04DX003 (ip), vehicle: Klucel (hydroxypropylcellulose) (HPC)
[20] = dose: 100.0 mg/kg/injection, schedule: Q01DX001 (ip), vehicle: carboxymethylcellulose (CMC)
[21] = dose: 200.0 mg/kg/injection, schedule: Q01DX001 (ip), vehicle: carboxymethylcellulose (CMC)
[22] = dose: 400.0 mg/kg/injection, schedule: Q01DX001 (ip), vehicle: carboxymethylcellulose (CMC)
[23] = dose: 100.0 mg/kg/injection, schedule: Q04DX003 (ip), vehicle: saline with Tween-80
[24] = dose: 200.0 mg/kg/injection, schedule: Q04DX003 (ip), vehicle: saline with Tween-80
[25] = dose: 400.0 mg/kg/injection, schedule: Q04DX003 (ip), vehicle: saline with Tween-80

Measured: T/C

CC(C)=CCCC(C)CCO (stereo unspecified)
inactive: [1] 94 % of control | [2] 100 % of control

CCCCCCCc1c(C)[nH]c2ccccc2c1=O
inactive: [3] 86 % of control | [4] 98 % of control | [5] 94 % of control | [6] 91 % of control

NCc1nc2ccccc2[nH]1
inactive: [7] 101 % of control | [1] 103 % of control | [2] 95 % of control | [8] 95 % of control

CC(/C=N/NC(=O)NO)=N\NC(=O)NO
inactive: [9] 98 % of control | [10] 98 % of control | [4] 112 % of control | [11] 98 % of control | [12] 97 % of control | [5] 102 % of control | [13] 104 % of control | [14] 104 % of control | [6] 98 % of control

CC(C)(C)NO
inactive: dose: 100.0 mg/kg/injection, schedule: Q01DX001 (ip), vehicle: Klucel (hydroxypropylcellulose) (HPC) 113 % of control | [3] 108 % of control | dose: 200.0 mg/kg/injection, schedule: Q01DX001 (ip), vehicle: Klucel (hydroxypropylcellulose) (HPC) 101 % of control | [15] 103 % of control | dose: 400.0 mg/kg/injection, schedule: Q01DX001 (ip), vehicle: Klucel (hydroxypropylcellulose) (HPC) 98 % of control | [16] 101 % of control

CC(=O)OC1C(SC(C)(C)C)C=CC(SC(C)(C)C)N1C(C)=O (stereo unspecified)
inactive: [3] 103 % of control | [15] 103 % of control | [16] 95 % of control

COc1ccc(-n2c(=S)[nH]c3ccccc3c2=O)cc1
inactive: dose: 100.0 mg/kg/injection, schedule: Q01DX009 (ip), vehicle: other 107 % of control | [17] 95 % of control | dose: 200.0 mg/kg/injection, schedule: Q01DX009 (ip), vehicle: other 96 % of control | [18] 91 % of control | dose: 400.0 mg/kg/injection, schedule: Q01DX009 (ip), vehicle: other 102 % of control | dose: 400.0 mg/kg/injection, schedule: Q04DX003 (ip), vehicle: saline 91 % of control

CC(=O)N(N=O)c1cc(Cl)ccc1Cl
inactive: [7] 113 % of control | [1] 110 % of control | [2] 101 % of control | [8] 107 % of control

C/C=C/C=C(\CC)C(=O)OCC
inactive: dose: 50.0 mg/kg/injection, schedule: Q01DX009 (ip), vehicle: saline 115 % of control | [10] 98 % of control | dose: 100.0 mg/kg/injection, schedule: Q01DX009 (ip), vehicle: saline 99 % of control | [12] 90 % of control | dose: 200.0 mg/kg/injection, schedule: Q01DX009 (ip), vehicle: saline 96 % of control | [14] 101 % of control

COC(=O)C(NC(=O)C(NC(=O)Cc1ccccc1)SCc1ccccc1)=C(C)C (stereo unspecified)
inactive: [17] 95 % of control | [18] 89 % of control

COc1ccccc1/C=C/[N+](=O)[O-]
inactive: dose: 50.0 mg/kg/injection, schedule: Q04DX003 (ip), vehicle: Klucel (hydroxypropylcellulose) (HPC) 95 % of control | [19] 101 % of control

CCOP(=O)(Cc1ccc(N(CCI)CCI)cc1)OCC
inactive: dose: 75.0 mg/kg/injection, schedule: Q01DX001 (ip), vehicle: saline 116 % of control | dose: 150.0 mg/kg/injection, schedule: Q01DX001 (ip), vehicle: saline 116 % of control

CC(=O)c1cccc(NC(=O)c2ccc(C(=O)Nc3cccc(C(C)=O)c3)cc2)c1
inactive: [9] 104 % of control | [11] 102 % of control | [13] 89 % of control

COC1OC(n2cnc3ncn(Cc4ccccc4)c3c2=N)C2OC(C)(C)OC12 (stereo unspecified)
inactive: [17] 97 % of control | [18] 92 % of control

OCC(O)C(O)/C=N/N(Cc1ccccc1)c1ccccc1 (stereo unspecified)
inactive: dose: 50.0 mg/kg/injection, schedule: Q01DX001 (ip), vehicle: carboxymethylcellulose (CMC) 103 % of control | [20] 101 % of control | [21] 101 % of control | [22] 97 % of control

CCCCSc1n[nH]c(=O)[nH]c1=O
inactive: [1] 113 % of control | [2] 92 % of control | [8] 95 % of control

COc1ccc(Cl)cc1NC(=O)c1ccco1
inactive: [3] 89 % of control | [15] 87 % of control | [16] 97 % of control

O=C(CNS(=O)(=O)c1ccccc1)c1ccc(Cl)cc1Cl
inactive: [3] 94 % of control | [15] 105 % of control | [16] 95 % of control

CCC(C)COC(=O)Nc1cccc(OC(=O)NC)c1 (stereo unspecified)
inactive: [23] 97 % of control | [24] 102 % of control | [25] 102 % of control

COc1c(Br)cc(N=Cc2ccc(N(CCCl)CCCl)cc2C)cc1Br
inactive: [20] 98 % of control | [21] 107 % of control | [22] 110 % of control

CCCCN(C)N=Nc1ccc(C(N)=O)cc1
inactive: dose: 20.0 mg/kg/injection, schedule: Q01DX Z (ip), vehicle: carboxymethylcellulose (CMC) 98 % of control | dose: 40.0 mg/kg/injection, schedule: Q01DX Z (ip), vehicle: carboxymethylcellulose (CMC) 101 % of control | dose: 60.0 mg/kg/injection, schedule: Q01DX Z (ip), vehicle: carboxymethylcellulose (CMC) 104 % of control

O=C(NCc1ccc(Cl)cc1)NC1CCCCC1
inactive: dose: 100.0 mg/kg/injection, schedule: Q04DX002 (ip), vehicle: Klucel (hydroxypropylcellulose) (HPC) 100 % of control | dose: 200.0 mg/kg/injection, schedule: Q04DX002 (ip), vehicle: Klucel (hydroxypropylcellulose) (HPC) 100 % of control | dose: 400.0 mg/kg/injection, schedule: Q04DX002 (ip), vehicle: Klucel (hydroxypropylcellulose) (HPC) 106 % of control

C=CCn1c2c(c3ccccc31)CCC2
inactive: dose: 50.0 mg/kg/injection, schedule: Q01DX009 (ip), vehicle: saline with Tween-80 86 % of control | [10] 93 % of control

COc1ccc(OCC(O)CN2CCN(c3ccc(Cl)cc3)CC2)cc1 (stereo unspecified)
inactive: [23] 93 % of control | [24] 90 % of control | [25] 98 % of control

O=CNc1cc([N+](=O)[O-])cc([N+](=O)[O-])c1O
inactive: [19] 104 % of control | dose: 200.0 mg/kg/injection, schedule: Q04DX003 (ip), vehicle: Klucel (hydroxypropylcellulose) (HPC) 100 % of control | dose: 400.0 mg/kg/injection, schedule: Q04DX003 (ip), vehicle: Klucel (hydroxypropylcellulose) (HPC) 93 % of control

CCCCCCCCCCN(CCCCCCCCCC)C(C)C(=O)c1ccc2cc(Br)c3ccccc3c2c1 (stereo unspecified)
inactive: dose: 55.0 mg/kg/injection, schedule: Q01DX Z (ip), vehicle: methylcellulose (MC) 93 % of control | dose: 83.0 mg/kg/injection, schedule: Q01DX Z (ip), vehicle: methylcellulose (MC) 100 % of control | dose: 125.0 mg/kg/injection, schedule: Q01DX Z (ip), vehicle: methylcellulose (MC) 93 % of control
